Test results: US20210121426A1, “BLOOD PURIFICATION BY ALKALINIZING AGENT” (TOHOKU UNIVERSITY, priority 2017, published 2021)
Marks after values point to notes of the source that are not given here.

How the values were obtained:
p-cresyl sulfate = assay: Human clinical trial in CKD patients: p-cresyl sulfate in plasma and early morning urine (LC-MS/MS); format: in vivo; parameters: key to Influence on concentration of PCS / Influence on PCS U/P ratio: Excellent effects: ◯; Poor effects: X; No significant difference: —; (◯): whether or not there is an effect of promoting excretion of indoxyl sulfate into the urine cannot be determined
Procedure: (§1) 1. […] Patients were assigned to each group so that age, sex, presence of diabetes, and eGFR were not biased. Each group was treated according to the “CKD medical care guide-summary of treatment” (hereinafter referred to as standard treatment).
(§2) An alkalinizing agent was not administered to the control group. […] A pH of early morning urine was controlled over time so that the dosage could be increased up to 6 tablets, 3 times a day (morning, noon, evening) as needed according to the discretion of the physician in cases where a pH of early morning urine was less than pH 6.5. To the group B, 3 tablets a day in which each tablet contained 500 mg of sodium bicarbonate were orally administered 3 times a day (morning, noon, evening) for 24 weeks. A pH of early morning urine was controlled over time so that the dosage could be increased up to 6 tablets, 3 times a day (morning, noon, evening) as needed according to the discretion of the physician in cases where a pH of early morning urine was less than pH 6.5.
Early morning urine and blood were collected before the start of administration, and 6 weeks, 12 weeks, and 24 weeks after the start of administration, and each specimen was stored at −80° C. Methods used in the present field for indoxyl sulfate, p-cresyl sulfate, phenylacetyl-L-glutamine, hippuric acid, and argininosuccinic acid in urine and blood (Sato, E., et. al., Metabolic alteration by indoxyl sulfate in skeletal muscle induce uremic sarcopenia in chronic kidney disease., Sci Rep. 2016 Nov. 10; 6:36618. doi: 10.1038/srep36618, and the like) were referred to, and quantitative analysis was performed using the following liquid chromatography triple quadrupole mass spectrometer (LC-MS/MS).
For LC, NANOSPACE SI-2 (manufactured by Shiseido) was used, and […] MGM was selected as the analytical column.
For MS, TSQ Quantiva (manufactured by Thermo Fisher Scientific Co., Ltd.) was used, and five compounds were ionized in the negative mode and detected using the Selected Reaction Monitoring method. The quantitative value was calculated using a calibration curve prepared with a standard solution of each compound.
For statistical analysis, the Mann-Whitney test was used for comparison between groups, and the Wilcoxon test was used for comparison of changes over time. The Pearson test was used for correlation.
Then, the average value and SD of each group were calculated for (i) to (ix) above. For each of (iv) to (ix) above, the average value and SD of each group were calculated for all data of 6 weeks, 12 weeks, and 24 weeks after the start of administration in each group.

[1] = Human clinical trial: urinary specific gravity of early morning urine (urine hydrometer); format: in vivo
Procedure: as §1, §2
In addition, amounts of change in each urinary specific gravity after 6, 12, and 24 weeks after the start of the test are respectively shown as a % relative value with respect to each urinary specific gravity before the start of the test, and a difference from urinary specific gravity before the start of the teste in Tables 11-0-2 and 11-0-3. The urinary specific gravity was measured using a urine hydrometer (PAL-09S, Atago Co., Ltd., Tokyo, Japan).

indoxyl sulfate = assay: Urine indoxyl sulfate (IS) corrected by urinary specific gravity; format: in vivo, human
Source text: (§3) Medical Examination, Vol. 44, No. 1, 1995, pages 79-83 by Tetsuo Aoki et al. was referred to. A urinary specific gravity 1.022 was converted into a reference value.
(§4) Specific gravity correction value (unit/1.022·UG)=actual measurement value×(1.022−1.000)/(specific gravity value−1.000)

hippuric acid = assay: Urine hippuric acid (HA) corrected by urinary specific gravity; format: in vivo, human
Source text: as §3, §4

[2] = Human clinical trial: osmotic pressure of early morning urine (freezing point depression method); format: in vivo
Procedure: as §1, §2
The osmotic pressure was measured using the freezing point depression method.

[3] = 0 W, before the start of administration
[4] = 6-24 W, all data of 6, 12 and 24 weeks
[5] = compared to before administration
[6] = 0 W, before the start of the test
[7] = over 6, 12 and 24 weeks, compared with the control group

O=C([O-])O.[Na+] [Bicarbonate, sodium bicarbonate]
Plasma p-Cresyl Sulfate (p-cresyl sulfate; [3]): 5402 ± 5209 ng/mL
Urine p-Cresyl Sulfate (early morning urine) (p-cresyl sulfate; [3]): 66164 ± 97704 ng/mL
p-Cresyl Sulfate-Urine/Plasma ratio (p-cresyl sulfate; [3]): 15.6 ± 11.1
Plasma p-Cresyl Sulfate (p-cresyl sulfate; [4]): 4187 ± 4354 ng/mL
Plasma p-Cresyl Sulfate, change from week 0 (p-cresyl sulfate; [4]): -1038 ± 2773 ng/mL
Urine p-Cresyl Sulfate (early morning urine) (p-cresyl sulfate; [4]): 52501 ± 73583 ng/mL
Urine p-Cresyl Sulfate, change from week 0 (p-cresyl sulfate; [4]): -13663 ± 74566 ng/mL
p-Cresyl Sulfate-Urine/Plasma ratio (p-cresyl sulfate; [4]): 16.8 ± 13.9 ^d
p-Cresyl Sulfate-Urine/Plasma ratio, change from week 0 (p-cresyl sulfate; [4]): 1.20 ± 11.45
Plasma p-Cresyl Sulfate (p-cresyl sulfate; 6 W): 4506 ± 5300 ng/mL
Plasma p-Cresyl Sulfate, change from week 0 (p-cresyl sulfate; 6 W): -895.9 ± 2153 ng/mL
Urine p-Cresyl Sulfate (early morning urine) (p-cresyl sulfate; 6 W): 67744 ± 105548 ng/mL
Urine p-Cresyl Sulfate, change from week 0 (p-cresyl sulfate; 6 W): 1580 ± 51468 ng/mL
p-Cresyl Sulfate-Urine/Plasma ratio (p-cresyl sulfate; 6 W): 17.0 ± 12.0
p-Cresyl Sulfate-Urine/Plasma ratio, change from week 0 (p-cresyl sulfate; 6 W): 1.39 ± 8.25
Plasma p-Cresyl Sulfate (p-cresyl sulfate; 12 W): 3771 ± 4139 ng/mL
Plasma p-Cresyl Sulfate, change from week 0 (p-cresyl sulfate; 12 W): -1103 ± 2478 ng/mL
Urine p-Cresyl Sulfate (early morning urine) (p-cresyl sulfate; 12 W): 37730 ± 48411 ng/mL
Urine p-Cresyl Sulfate, change from week 0 (p-cresyl sulfate; 12 W): -28434 ± 72253 ng/mL
p-Cresyl Sulfate-Urine/Plasma ratio (p-cresyl sulfate; 12 W): 16.5 ± 17.9
p-Cresyl Sulfate-Urine/Plasma ratio, change from week 0 (p-cresyl sulfate; 12 W): 0.91 ± 15.68
Plasma p-Cresyl Sulfate (p-cresyl sulfate; 24 W): 4284 ± 3682 ng/mL
Plasma p-Cresyl Sulfate, change from week 0 (p-cresyl sulfate; 24 W): -1119 ± 3631 ng/mL
Urine p-Cresyl Sulfate (early morning urine) (p-cresyl sulfate; 24 W): 52029 ± 57779 ng/mL
Urine p-Cresyl Sulfate, change from week 0 (p-cresyl sulfate; 24 W): -14163 ± 95244 ng/mL
p-Cresyl Sulfate-Urine/Plasma ratio (p-cresyl sulfate; 24 W): 17.0 ± 11.8 ^c
p-Cresyl Sulfate-Urine/Plasma ratio, change from week 0 (p-cresyl sulfate; 24 W): 1.31 ± 9.81
Influence on concentration of PCS (p-cresyl sulfate; Plasma, comparison with Cont): —
Influence on concentration of PCS (p-cresyl sulfate; Plasma, comparison with reference drug): ◯
Influence on PCS U/P ratio (p-cresyl sulfate; comparison with Cont): ◯
Influence on PCS U/P ratio (p-cresyl sulfate; comparison with reference drug): —
Influence on concentration of PCS (p-cresyl sulfate; Urine, comparison with Cont): —
Influence on concentration of PCS (p-cresyl sulfate; Urine, comparison with reference drug): X
concentration of p-cresyl sulfate in plasma (p-cresyl sulfate; [5]): decreased
concentration of p-cresyl sulfate in urine (p-cresyl sulfate; [5]): such an effect was not recognized
Urine Specific Gravity [1, 6]: 1.014 ± 0.007
Urine Specific Gravity ([1]; 6-24 W, all data): 1.014 ± 0.006
Urine Specific Gravity (% Relative value vs week 0) ([1]; 6-24 W, all data): 100.00 ± 0.67%
Urine Specific Gravity, difference vs week 0 ([1]; 6-24 W, all data): 0.0002 ± 0.0058^b
Urine Specific Gravity ([1]; 6 W): 1.014 ± 0.006
Urine Specific Gravity (% Relative value vs week 0) ([1]; 6 W): 100.02 ± 0.53%
Urine Specific Gravity, difference vs week 0 ([1]; 6 W): 0.0002 ± 0.0054
Urine Specific Gravity ([1]; 12 W): 1.013 ± 0.005
Urine Specific Gravity (% Relative value vs week 0) ([1]; 12 W): 99.89 ± 0.58^e %
Urine Specific Gravity, difference vs week 0 ([1]; 12 W): −0.0012 ± 0.0058^e
Urine Specific Gravity ([1]; 24 W): 1.016 ± 0.007
Urine Specific Gravity (% Relative value vs week 0) ([1]; 24 W): 100.17 ± 0.61%
Urine Specific Gravity, difference vs week 0 ([1]; 24 W): 0.0017 ± 0.0062
urinary specific gravity value [1, 7]: maintained or increased
Urine IS, specific gravity corrected (indoxyl sulfate; 6-24 W, all data): 76.7 ± 38.0 μg · mL^−1/1.022 · UG
Urine IS, specific gravity corrected, % Relative value vs week 0 (indoxyl sulfate; 6-24 W, all data): 89 ± 45%
Urine IS, specific gravity corrected, difference vs week 0 (indoxyl sulfate; 6-24 W, all data): −15.9 ± 34.4 μg · mL^−1/1.022 · UG
Urine IS, specific gravity corrected (indoxyl sulfate; 6 W): 83.3 ± 41.9 μg · mL^−1/1.022 · UG
Urine IS, specific gravity corrected, % Relative value vs week 0 (indoxyl sulfate; 6 W): 95 ± 30%
Urine IS, specific gravity corrected, difference vs week 0 (indoxyl sulfate; 6 W): −9.3 ± 27.7 μg · mL^−1/1.022 · UG
Urine IS, specific gravity corrected, % Relative value vs week 0 (indoxyl sulfate; 12 W): 77 ± 42%
Urine IS, specific gravity corrected, difference vs week 0 (indoxyl sulfate; 12 W): −27.0 ± 32.9^ μg · mL^−1/1.022 · UG
Urine IS, specific gravity corrected (indoxyl sulfate; 24 W): 81.1 ± 41.6 μg · mL^−1/1.022 · UG
Urine IS, specific gravity corrected, % Relative value vs week 0 (indoxyl sulfate; 24 W): 95 ± 59%
Urine IS, specific gravity corrected, difference vs week 0 (indoxyl sulfate; 24 W): −11.4 ± 40.8 μg · mL^−1/1.022 · UG
Urine HA, specific gravity corrected (hippuric acid; 0 W): 202.3 ± 185.6 μg · mL^−1/1.022 · UG
Urine HA, specific gravity corrected (hippuric acid; 6-24 W, all data): 170.2 ± 101.6 μg · mL^−1/1.022 · UG
Urine HA, specific gravity corrected, % Relative value vs week 0 (hippuric acid; 6-24 W, all data): 118 ± 106%
Urine HA, specific gravity corrected, difference vs week 0 (hippuric acid; 6-24 W, all data): −32.1 ± 160.3 μg · mL^−1/1.022 · UG
Urine HA, specific gravity corrected (hippuric acid; 6 W): 161.8 ± 111.1 μg · mL^−1/1.022 · UG
Urine HA, specific gravity corrected, % Relative value vs week 0 (hippuric acid; 6 W): 104 ± 89%
Urine HA, specific gravity corrected, difference vs week 0 (hippuric acid; 6 W): −40.5 ± 171.7 μg · mL^−1/1.022 · UG
Urine HA, specific gravity corrected (hippuric acid; 12 W): 171.1 ± 87.0 μg · mL^−1/1.022 · UG
Urine HA, specific gravity corrected, % Relative value vs week 0 (hippuric acid; 12 W): 133 ± 134%
Urine HA, specific gravity corrected, difference vs week 0 (hippuric acid; 12 W): −31.2 ± 163.7 μg · mL^−1/1.022 · UG
Urine HA, specific gravity corrected (hippuric acid; 24 W): 177.7 ± 111.0 μg · mL^−1/1.022 · UG
Urine HA, specific gravity corrected, % Relative value vs week 0 (hippuric acid; 24 W): 118 ± 96%
Urine HA, specific gravity corrected, difference vs week 0 (hippuric acid; 24 W): −24.6 ± 155.3 μg · mL^−1/1.022 · UG
Urine Osmotic Pressure [2, 6]: 492 ± 206 mOsm/kg
Urine Osmotic Pressure ([2]; 6-24 W, all data): 486 ± 164 mOsm/kg
Urine Osmotic Pressure (% Relative value vs week 0) ([2]; 6-24 W, all data): 109 ± 45^b %
Urine Osmotic Pressure, difference vs week 0 ([2]; 6-24 W, all data): −6 ± 168 mOsm/kg
Urine Osmotic Pressure ([2]; 6 W): 488 ± 154 mOsm/kg
Urine Osmotic Pressure (% Relative value vs week 0) ([2]; 6 W): 108 ± 34%
Urine Osmotic Pressure, difference vs week 0 ([2]; 6 W): −4 ± 165 mOsm/kg
Urine Osmotic Pressure ([2]; 12 W): 456 ± 143 mOsm/kg
Urine Osmotic Pressure (% Relative value vs week 0) ([2]; 12 W): 105 ± 57%
Urine Osmotic Pressure, difference vs week 0 ([2]; 12 W): −36 ± 176^ mOsm/kg
Urine Osmotic Pressure ([2]; 24 W): 515 ± 195 mOsm/kg
Urine Osmotic Pressure (% Relative value vs week 0) ([2]; 24 W): 114 ± 45%
Urine Osmotic Pressure, difference vs week 0 ([2]; 24 W): 23 ± 169 mOsm/kg
osmotic pressure value of early morning urine [2, 7]: maintained or increased
